The test system of assay [1] is Streptococcus sp. 'group A'. The assay can be described thus: growth inhibition of control SK(-) GAS strain, dose response, counter-screen for streptokinase expression inhibitor project, luminescence, kanamycin, BacTiterGlo, confirmation (AID 1900). Type of assay: functional, organism-based.
For another assay, the target named is T1, Streptokinase A (Streptococcus pyogenes serotype M1, UniProt P10520).
T1 sequence (P10520 whole entry): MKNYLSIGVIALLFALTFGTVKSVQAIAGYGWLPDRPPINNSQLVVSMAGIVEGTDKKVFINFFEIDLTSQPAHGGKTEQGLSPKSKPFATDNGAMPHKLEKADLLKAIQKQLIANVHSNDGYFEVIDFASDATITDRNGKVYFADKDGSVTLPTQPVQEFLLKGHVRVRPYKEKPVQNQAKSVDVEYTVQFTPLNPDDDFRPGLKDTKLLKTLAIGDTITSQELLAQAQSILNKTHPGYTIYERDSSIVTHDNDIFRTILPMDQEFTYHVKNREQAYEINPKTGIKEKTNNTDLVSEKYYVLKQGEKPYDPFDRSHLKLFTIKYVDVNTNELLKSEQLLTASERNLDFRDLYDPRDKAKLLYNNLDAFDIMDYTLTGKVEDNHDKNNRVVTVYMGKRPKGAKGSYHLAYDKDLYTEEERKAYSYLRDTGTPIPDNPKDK
Nature of the assay: S. pyogenes streptokinase expression inhibitors, potency, dose response, plasminogen activation absorbance, OD405 (AID 1914).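 Further: secreted streptokinase activity via plasminogen activation per viability signal from cell pellet.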 Type of assay: functional, Streptococcus pyogenes M1 GAS.

The target in another assay is Melanocortin receptor 4 (Homo sapiens, UniProt P32245). Nature of the assay: MC4R antagonist potency on cAMP, dose response, cell-based, TR-FRET, biased antagonists (AID 602298).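 Further: antagonist potency against agonist-stimulated cAMP production.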 It is filed as functional.
Assay [2] addresses Protein kinase C theta type (Homo sapiens, UniProt Q04759). Nature of the assay: Navigating the Kinome. Panel member name: PRKCQ. Type of assay: functional.
The target of assay [3] is Ribosomal protein S6 kinase alpha-3 (Homo sapiens, UniProt P51812). It is filed as functional.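 Further: measured within a kinome-wide profiling panel.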
Assay [4] deals with Tyrosine-protein kinase JAK2 (Homo sapiens, UniProt O60674). Type of assay: functional.
For assay [5], the target named is Mitogen-activated protein kinase 8 (Homo sapiens, UniProt P45983). It is filed as functional.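 Further: value comes from one member of a kinome-wide kinase profiling panel.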
In assay [6] the target is Serine/threonine-protein kinase pim-1 (Homo sapiens, UniProt P11309). It is filed as functional.
Assay [7] concerns the target Fibroblast growth factor receptor 1 (Homo sapiens, UniProt P11362). It is filed as functional.
The target of assay [8] is High affinity nerve growth factor receptor (Homo sapiens, UniProt P04629). It is filed as functional.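 Further: NTRK1 tested as one member of a kinome-wide profiling panel.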
Assay [9] has as its target Glycogen synthase kinase-3 alpha (Homo sapiens, UniProt P49840). It is filed as functional.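 Further: GSK3A result taken from a broad kinome-wide kinase panel.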
Assay [10] concerns the target Mitogen-activated protein kinase kinase kinase kinase 2 (Homo sapiens, UniProt Q12851). It is filed as functional.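 Further: measured as one member of a kinome-wide kinase panel, with MAP4K2 as the panel entry.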
The target of assay [11] is Receptor-type tyrosine-protein kinase FLT3 (Homo sapiens, UniProt P36888). It is filed as functional.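 Further: FLT3 was tested as one member of a kinome-wide kinase panel.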
The target in assay [12] is G protein-coupled receptor kinase 5 (Homo sapiens, UniProt P34947). The assay can be described thus: Navigating the Kinome. Panel member name: GPRK5. It is filed as functional.
Assay [13] has as its target cAMP-dependent protein kinase catalytic subunit PRKX (Homo sapiens, UniProt P51817). Type of assay: functional.
For the next assay, the target named is Aurora kinase B (Homo sapiens, UniProt Q96GD4). Type of assay: functional.
Assay [14] has as its target Rho-associated protein kinase 1 (Homo sapiens, UniProt Q13464). Type of assay: functional.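 Further: measured within a broad kinome-wide panel profiling many kinases.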
In assay [15] the target is Tyrosine-protein kinase Fyn (Homo sapiens, UniProt P06241). It is filed as functional.
In assay [16] the target is Serine/threonine-protein kinase Nek2 (Homo sapiens, UniProt P51955). Type of assay: functional.
Assay [17] has as its target Glycogen synthase kinase-3 beta (Homo sapiens, UniProt P49841). It is filed as functional.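 Further: value comes from a broad kinome profiling panel, with GSK3B as the panel member.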
For assay [18], the target named is Cyclin-dependent kinase 9 (Homo sapiens, UniProt P50750). It is filed as functional.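 Further: value from the CDK9 entry of a kinome-spanning kinase panel.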
The target in assay [19] is BDNF/NT-3 growth factors receptor (Homo sapiens, UniProt Q16620). Type of assay: functional.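 Further: NTRK2 measured as one member of a broad kinome-wide kinase profiling panel.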
Assay [20] addresses Dual specificity protein kinase CLK4 (Homo sapiens, UniProt Q9HAZ1). Type of assay: functional.
Assay [21] deals with Macrophage colony-stimulating factor 1 receptor (Homo sapiens, UniProt P07333). Type of assay: functional.
The target of assay [22] is Mitogen-activated protein kinase 14 (Homo sapiens, UniProt Q16539). Type of assay: functional.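 Further: part of a kinome-wide panel, MAPK14 entry.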
Assay [23] deals with T2, Calpain-2 catalytic subunit (Sus scrofa, UniProt P43367).
T2 sequence (P43367 whole entry): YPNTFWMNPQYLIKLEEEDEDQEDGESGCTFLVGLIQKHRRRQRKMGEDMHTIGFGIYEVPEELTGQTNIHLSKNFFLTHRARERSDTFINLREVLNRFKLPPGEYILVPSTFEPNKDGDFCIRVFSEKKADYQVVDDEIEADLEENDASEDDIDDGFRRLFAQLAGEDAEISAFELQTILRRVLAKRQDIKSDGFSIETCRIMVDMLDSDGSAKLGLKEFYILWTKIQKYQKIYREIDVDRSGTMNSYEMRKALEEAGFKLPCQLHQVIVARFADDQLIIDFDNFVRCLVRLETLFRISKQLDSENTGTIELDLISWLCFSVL
The assay can be described thus: pig calpain II inhibitor potency, dose response, biochemical, fluorogenic peptide substrate (AID 1420). Type of assay: functional.

Assay [24] concerns the target T3, Sentrin-specific protease 8 (Homo sapiens, UniProt Q96LD8).
T3 sequence (Q96LD8 whole entry): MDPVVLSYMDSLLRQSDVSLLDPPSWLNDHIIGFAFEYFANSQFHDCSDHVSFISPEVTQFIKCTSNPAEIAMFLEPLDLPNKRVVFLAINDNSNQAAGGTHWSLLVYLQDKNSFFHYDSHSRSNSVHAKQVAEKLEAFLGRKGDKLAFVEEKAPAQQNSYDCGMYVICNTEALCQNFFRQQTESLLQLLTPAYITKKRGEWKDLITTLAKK
Nature of the assay: SENP8 protease inhibitors, SAR follow-up, biochemical, luminescence (AID 504501). Type of assay: functional.

Active and inactive are the calls of the source.

Sequence of Aurora kinase B (Q96GD4 whole entry): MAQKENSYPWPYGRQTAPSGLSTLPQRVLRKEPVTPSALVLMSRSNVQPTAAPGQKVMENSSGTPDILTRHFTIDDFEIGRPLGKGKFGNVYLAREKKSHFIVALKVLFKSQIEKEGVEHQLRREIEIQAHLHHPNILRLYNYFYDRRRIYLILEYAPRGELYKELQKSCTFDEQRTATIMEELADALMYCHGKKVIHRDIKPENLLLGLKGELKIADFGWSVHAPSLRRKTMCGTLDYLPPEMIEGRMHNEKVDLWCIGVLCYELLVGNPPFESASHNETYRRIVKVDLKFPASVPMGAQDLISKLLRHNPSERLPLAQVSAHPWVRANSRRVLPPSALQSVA
Sequence of BDNF/NT-3 growth factors receptor (Q16620 whole entry): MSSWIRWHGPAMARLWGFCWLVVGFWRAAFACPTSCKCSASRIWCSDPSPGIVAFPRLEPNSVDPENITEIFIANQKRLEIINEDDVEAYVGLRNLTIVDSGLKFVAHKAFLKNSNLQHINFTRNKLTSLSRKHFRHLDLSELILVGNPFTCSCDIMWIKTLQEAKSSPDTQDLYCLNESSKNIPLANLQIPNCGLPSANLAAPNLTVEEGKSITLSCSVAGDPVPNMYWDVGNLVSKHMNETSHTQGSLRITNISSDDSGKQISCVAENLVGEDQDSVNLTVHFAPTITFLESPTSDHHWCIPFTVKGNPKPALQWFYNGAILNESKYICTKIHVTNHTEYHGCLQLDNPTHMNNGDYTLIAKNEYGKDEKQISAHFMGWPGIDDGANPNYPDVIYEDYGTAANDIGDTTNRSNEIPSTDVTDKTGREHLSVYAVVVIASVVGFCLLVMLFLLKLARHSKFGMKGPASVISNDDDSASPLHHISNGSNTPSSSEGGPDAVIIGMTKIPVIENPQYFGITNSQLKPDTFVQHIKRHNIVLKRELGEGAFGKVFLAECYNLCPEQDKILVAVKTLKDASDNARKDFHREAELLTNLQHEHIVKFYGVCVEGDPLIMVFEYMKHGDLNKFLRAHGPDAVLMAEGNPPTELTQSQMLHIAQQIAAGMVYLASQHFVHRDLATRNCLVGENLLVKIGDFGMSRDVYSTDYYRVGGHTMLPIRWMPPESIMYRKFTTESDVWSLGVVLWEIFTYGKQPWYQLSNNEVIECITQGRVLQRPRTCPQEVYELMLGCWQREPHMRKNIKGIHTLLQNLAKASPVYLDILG
Sequence of Serine/threonine-protein kinase Nek2 (P51955 whole entry): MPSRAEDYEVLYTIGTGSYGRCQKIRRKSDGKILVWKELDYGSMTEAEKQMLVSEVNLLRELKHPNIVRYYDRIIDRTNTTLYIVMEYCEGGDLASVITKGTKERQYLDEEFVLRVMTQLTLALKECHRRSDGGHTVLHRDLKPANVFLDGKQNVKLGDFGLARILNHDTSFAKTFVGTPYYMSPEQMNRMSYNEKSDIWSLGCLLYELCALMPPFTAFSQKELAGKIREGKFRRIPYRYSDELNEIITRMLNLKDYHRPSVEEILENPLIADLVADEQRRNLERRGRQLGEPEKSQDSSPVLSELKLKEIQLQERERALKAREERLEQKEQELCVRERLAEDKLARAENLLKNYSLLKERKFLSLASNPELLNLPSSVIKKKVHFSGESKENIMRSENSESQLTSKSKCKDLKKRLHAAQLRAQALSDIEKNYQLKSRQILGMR
Sequence of Macrophage colony-stimulating factor 1 receptor (P07333 whole entry): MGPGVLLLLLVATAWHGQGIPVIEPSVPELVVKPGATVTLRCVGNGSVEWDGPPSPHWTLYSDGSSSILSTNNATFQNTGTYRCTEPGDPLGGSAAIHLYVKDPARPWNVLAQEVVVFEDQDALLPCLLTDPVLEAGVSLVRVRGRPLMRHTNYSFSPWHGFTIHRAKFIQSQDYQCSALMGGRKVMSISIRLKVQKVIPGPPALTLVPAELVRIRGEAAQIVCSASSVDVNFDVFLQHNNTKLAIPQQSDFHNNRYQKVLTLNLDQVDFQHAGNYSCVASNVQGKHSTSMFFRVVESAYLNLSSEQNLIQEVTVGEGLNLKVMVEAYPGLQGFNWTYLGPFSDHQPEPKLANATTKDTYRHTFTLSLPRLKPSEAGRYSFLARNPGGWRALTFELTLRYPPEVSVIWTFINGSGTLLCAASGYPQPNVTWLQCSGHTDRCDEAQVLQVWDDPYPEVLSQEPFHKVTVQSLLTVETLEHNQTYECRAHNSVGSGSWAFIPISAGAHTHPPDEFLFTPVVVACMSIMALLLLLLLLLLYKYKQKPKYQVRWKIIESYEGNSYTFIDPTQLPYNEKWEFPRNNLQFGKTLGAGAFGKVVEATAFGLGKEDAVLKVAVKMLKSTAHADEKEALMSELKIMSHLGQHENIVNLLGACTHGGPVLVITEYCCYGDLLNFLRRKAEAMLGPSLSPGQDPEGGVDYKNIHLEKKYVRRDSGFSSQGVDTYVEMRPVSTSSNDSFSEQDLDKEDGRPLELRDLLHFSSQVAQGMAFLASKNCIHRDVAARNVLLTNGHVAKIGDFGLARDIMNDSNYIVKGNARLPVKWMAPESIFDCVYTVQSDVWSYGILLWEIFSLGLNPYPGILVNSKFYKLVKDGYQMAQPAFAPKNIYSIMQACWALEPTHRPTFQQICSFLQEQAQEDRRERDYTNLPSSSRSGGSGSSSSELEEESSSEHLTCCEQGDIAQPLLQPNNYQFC
Sequence of Glycogen synthase kinase-3 alpha (P49840 whole entry): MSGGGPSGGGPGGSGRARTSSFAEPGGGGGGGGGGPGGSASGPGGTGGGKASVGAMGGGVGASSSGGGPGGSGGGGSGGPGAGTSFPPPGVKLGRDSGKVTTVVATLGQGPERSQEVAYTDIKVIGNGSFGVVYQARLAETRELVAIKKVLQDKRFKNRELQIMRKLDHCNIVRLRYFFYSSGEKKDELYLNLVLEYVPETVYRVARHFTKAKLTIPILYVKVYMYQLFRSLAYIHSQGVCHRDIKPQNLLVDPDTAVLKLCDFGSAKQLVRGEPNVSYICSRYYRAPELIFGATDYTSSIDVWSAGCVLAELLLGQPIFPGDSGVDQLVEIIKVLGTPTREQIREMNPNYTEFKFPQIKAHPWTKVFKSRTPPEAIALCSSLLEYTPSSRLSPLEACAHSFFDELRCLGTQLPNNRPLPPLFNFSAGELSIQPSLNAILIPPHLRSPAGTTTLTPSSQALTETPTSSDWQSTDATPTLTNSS
Sequence of cAMP-dependent protein kinase catalytic subunit PRKX (P51817 whole entry): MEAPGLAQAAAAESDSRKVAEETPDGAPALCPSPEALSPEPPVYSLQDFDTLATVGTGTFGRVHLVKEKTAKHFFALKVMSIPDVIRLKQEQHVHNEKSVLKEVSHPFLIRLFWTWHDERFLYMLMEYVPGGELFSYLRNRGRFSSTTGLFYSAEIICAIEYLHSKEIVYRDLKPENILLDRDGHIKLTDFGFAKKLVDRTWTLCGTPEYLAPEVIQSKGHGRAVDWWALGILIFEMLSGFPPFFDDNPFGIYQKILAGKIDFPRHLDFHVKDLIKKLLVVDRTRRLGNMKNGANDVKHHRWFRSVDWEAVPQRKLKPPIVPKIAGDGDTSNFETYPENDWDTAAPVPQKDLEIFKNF
Sequence of Tyrosine-protein kinase JAK2 (O60674 whole entry): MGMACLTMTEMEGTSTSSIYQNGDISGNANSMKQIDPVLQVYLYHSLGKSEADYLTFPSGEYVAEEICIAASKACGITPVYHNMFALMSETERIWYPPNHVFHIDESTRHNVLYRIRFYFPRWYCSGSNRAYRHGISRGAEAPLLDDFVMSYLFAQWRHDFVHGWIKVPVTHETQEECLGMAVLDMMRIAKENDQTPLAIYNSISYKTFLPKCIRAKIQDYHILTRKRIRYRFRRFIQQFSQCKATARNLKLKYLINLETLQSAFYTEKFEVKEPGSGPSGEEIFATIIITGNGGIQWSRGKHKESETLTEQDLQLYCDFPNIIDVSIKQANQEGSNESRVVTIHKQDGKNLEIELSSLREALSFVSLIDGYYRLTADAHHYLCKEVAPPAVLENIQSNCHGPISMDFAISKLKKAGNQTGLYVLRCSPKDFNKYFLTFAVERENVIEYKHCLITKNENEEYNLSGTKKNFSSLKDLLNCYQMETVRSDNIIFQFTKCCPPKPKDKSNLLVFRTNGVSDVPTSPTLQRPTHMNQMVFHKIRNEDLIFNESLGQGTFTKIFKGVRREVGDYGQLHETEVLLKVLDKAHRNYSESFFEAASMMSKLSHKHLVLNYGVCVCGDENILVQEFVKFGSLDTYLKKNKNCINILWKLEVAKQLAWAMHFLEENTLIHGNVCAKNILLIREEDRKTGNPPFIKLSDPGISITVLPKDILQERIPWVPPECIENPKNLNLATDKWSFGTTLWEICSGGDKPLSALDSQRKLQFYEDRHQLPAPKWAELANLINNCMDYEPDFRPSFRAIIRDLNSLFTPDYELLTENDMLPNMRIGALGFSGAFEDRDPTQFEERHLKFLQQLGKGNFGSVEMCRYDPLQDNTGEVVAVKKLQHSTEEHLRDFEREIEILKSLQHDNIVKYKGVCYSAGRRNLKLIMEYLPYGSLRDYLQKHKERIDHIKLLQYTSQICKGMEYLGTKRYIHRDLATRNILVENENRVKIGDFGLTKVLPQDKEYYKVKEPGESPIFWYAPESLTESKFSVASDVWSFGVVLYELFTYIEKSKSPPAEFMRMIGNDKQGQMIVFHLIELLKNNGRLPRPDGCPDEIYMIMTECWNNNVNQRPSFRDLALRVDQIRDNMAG
Sequence of Mitogen-activated protein kinase 8 (P45983 whole entry): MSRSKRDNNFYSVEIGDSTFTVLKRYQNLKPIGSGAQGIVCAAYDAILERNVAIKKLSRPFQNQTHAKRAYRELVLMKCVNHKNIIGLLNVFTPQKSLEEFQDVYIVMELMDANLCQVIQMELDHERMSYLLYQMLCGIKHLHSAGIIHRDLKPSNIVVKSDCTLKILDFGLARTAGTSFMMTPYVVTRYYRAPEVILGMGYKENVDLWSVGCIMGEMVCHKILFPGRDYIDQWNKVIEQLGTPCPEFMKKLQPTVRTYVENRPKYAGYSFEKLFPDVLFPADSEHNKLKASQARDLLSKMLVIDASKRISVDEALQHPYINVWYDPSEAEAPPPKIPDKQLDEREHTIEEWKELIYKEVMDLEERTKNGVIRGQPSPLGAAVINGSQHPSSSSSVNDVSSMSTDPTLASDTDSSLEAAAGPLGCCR

For `O=Nc1c(-c2c(O)[nH]c3cc(Br)ccc23)[nH]c2ccccc12`, the values for the EC50 (in assay [1]; at Streptokinase A) were 2600 nM (active) and 44900 nM (active), respectively. Further, the IC50 at Melanocortin receptor 4 is 6370 nM (active).
Turning to `COc1cccc(C(C)NC(=O)c2ccc(-c3ccncc3)s2)c1` (configuration not stated), the Ki in [2] was 316 nM (active); in [3] it was 1580 nM (active); in assay [4], > 2510 nM (inactive); in [5] it was > 5010 nM (inactive); in assay [6] it was > 6310 nM (inactive); in assay [7] it was > 3980 nM (inactive). In addition, the Ki was > 3160 nM (inactive) in assay [8]; 1000 nM (active) in [9]; > 2510 nM (inactive) in [10]; > 3160 nM (inactive) in assay [11]; 1000 nM (active) in assay [12]; 2000 nM (active) in assay [13]. Also, the Ki at Aurora kinase B was 398 nM (active); in assay [14], 1.26 nM (active); in [15] it was > 6310 nM (inactive); in [16], > 3160 nM (inactive); in assay [17], 1260 nM (active); in [18], > 1580 nM (inactive). Also, the Ki is > 3980 nM (inactive) in assay [19], 316 nM (active) in assay [20], > 2510 nM (inactive) in assay [21] and > 3980 nM (inactive) in assay [22].
As for `Cc1ccc(NC(=O)COc2cccc(/C=C3\SC(=S)N(CCC(=O)O)C3=O)c2)cc1Cl`, the IC50 is > 50000 nM (not active) in [23] and > 99000 nM (inactive) in assay [24].

For the origin of these results see ChEMBL document CHEMBL1201862, “PubChem BioAssay data set” (2004).
